The results in this text go back to patent US7067697B2, “Cationic liposomes for gene transfer” (priority 1998, dated 2006).

Where two headings read alike, the source gives them in different places.

In one data set the test system is CD-1 mouse lungs. As to the kind of experiment: In vivo transfection of CD-1 mice with i.v. lipoplex (pCMV-Luc), luciferase activity assay in organs. As to conditions: for rank order of transfection activity in lungs: liposomes of pure cationic lipid, charge ratio 8:1 to 16:1, 12 hours after i.v.; for Relative Activity of MMET Analogues-Cholesterol Liposomes: cationic lipid:cholesterol 1:1 mol/mol, in vivo transfection to the lungs, MMET = 100; for transfection level versus trimethylammonium counterparts (DOTMA, DOTAP): 4:1 +/− charge ratio, pure cationic lipid liposomes. On the procedure: Cationic liposomes of formulas (I-VI) were prepared from pure cationic lipids or as equimolar mixtures of a cationic lipid and neutral lipids, such as DOPE, or cholesterol, using extrusion or sonication methods. One hundred μmoles of a cationic lipid or one hundred μmoles each of a cationic lipid and a selected neutral lipid were dissolved in a round bottom flask. The organic solvent was then evaporated under vacuum at 45° C. to form a thin lipid film. The residual solvent was further removed under high vacuum for one hour. The lipid film was then suspended with 10 ml of endotoxin-free distilled water (Gibco, BRL, MD) at room temperature for one hour, and subsequently extruded using 0.8 μm, 0.4 μm and 0.2 μm pore size filters. The extruded multilammelar liposomes have sizes of 850 nm, 350 nm and 280 nm in diameter, respectively. Some of the extruded liposomes were further sonicated in a bath sonicator for 2-5 minutes to form unilamellar liposomes with a size of about 100 nm in diameter. The size of the liposomes were measured by 90° laser dynamic light scattering using a Zetamaster submicron particle analyzer.
(§1) For transfection in vivo, normal CD-1 mouse was used as a model. The charge ration of lipid to DNA (±) was used throughout the study, assuming that 25 μg of DNA contains about 75 nmoles of negative charges, and one nmole of quaternary ammonium cationic lipid contains one nmole of positive charges. To prepare lipoplex for transfection, 25 μg or an indicated amounts of pCMV DNA was diluted in 100 μl of distilled water (endotoxin screened, Gibco). The diluted DNA solution was added to a polystyrene tube containing an indicated amount of cationic liposomes in 100 μl and was mixed immediately. The complexes were kept at + room temperature for 30 minutes before being administered to the animals via tail vein.
Luciferase activity was measured in various organs, including lung, liver spleen, and heart from transfected animals, using a luciferase activity assay kit (Promega, Madison, Wis.) and a luminometer (Moonlight 3010). Organs were collected from the animals at 12 hours post transfection or at an indicated time after injection of lipoplex. About 0.2 g of liver were removed from the animal. One ml of 1× lysis buffer (Promega, Madison, Wis.), supplemented with 0.1% Triton-X100 was added to collected organs. Each organ was homogenized for 10-20 seconds using a handheld homogenizer (Dremel, Racine, Wis.) as it top speed (about 30,000 rpm). The samples were centrifuged in a microcentrifuge for three minutes. A 10 μL of the cleared supernatant, containing approximately 100-200 μg proteins, was measured for luciferase activity. Protein content in the supernatants was determined with BioRad dye reagent method, using albumin as a standard. The luciferase activities were normalized to the relative light unit per milligram of extracted protein.

In data set [1] the test system is CD-1 mice. The data set is classed as in vivo. As to conditions: for safety of lipoplex for CD-1 mice: 25 μg of DNA, pure cationic lipid liposomes, 1:16 charge ratio; for Number of animals died per group (n = 3): CD-1 mice (20 g), charge ratio 16:1+/−, counted after 48 h; for relative toxicity of liposome compositions: escalating doses of lipoplexes, groups of three animals, first 48 hours. As to the method: as §1
Table 2 below lists the number of animals that expired during the first 48 hours of the experiment period, when escalating doses of the lipoplexes were given to a group of three animals. Lipoplex containing 25 μg of DNA and DOTMA or MMET liposomes at 1:16 charge ratio or with a mixture of cholesterol-DOTMA, or cholesterol-MMET at 1:4 charge ratios appear to be quite safe for CD-1 mice. Higher charge ratios of lipid to DNA and high doses of lipoplex were required to reach a lethal dose. […] In general, MMET containing liposomes were less toxic than the ones containing DOTMA.

Data set [2] concerns CD-1 mice. The conditions noted are these: mouse, in vivo.

For `CCCCCCCC/C=C\CCCCCCCCOCC(C[N+](C)(C)C)OCCCCCCCC/C=C\CCCCCCCC.[Cl-]` (centres unmarked) [DOTMA, 1,2,-dioleyl-3-N,N,N-trimethyl amino propane chloride, reference compound], the “rank order of transfection activity in lungs” value (shortened to “rank order”) with CD-1 mouse lungs is “MMET≧DOTMA>MMES>DOTAP>LADOP”. For the same molecule, the “safety of lipoplex for CD-1 mice” value in the data set with CD-1 mice [1] is listed as “quite safe”. Also, the “Number of animals died per group (n = 3)” value in the data set with CD-1 mice [1] (DNA dosage 25 ug) is on record as “(0)”; in the data set with CD-1 mice [1] (DNA dosage 30 ug) it was “(2)”; in the data set on CD-1 mice [1] (DNA dosage 45 ug) it was “(3)”. Also, the “relative toxicity of liposome compositions” value in the data set on CD-1 mice [1] is “somewhere in between”.

In the case of `CCCCCCCC/C=C\CCCCCCCC(=O)OCC(C[N+]1(C)CCCC1)OC(=O)CCCCCCC/C=C\CCCCCCCC` (centres unmarked) [MPES, N-3-methyl-1,2-dioleoul-3-pyrrolinum propane], the “Relative Activity of MMET Analogues-Cholesterol Liposomes” value in the data set on CD-1 mouse lungs was 1.87.

For `CCCCCCCC/C=C\CCCCCCCC(=O)OCC(C[N+]1(C)CCOCC1)OC(=O)CCCCCCC/C=C\CCCCCCCC` (centres unmarked) [MMES, N-3-methyl-1,2-dioleoyl-3-morpholinium propane], in the data set with CD-1 mouse lungs (lungs), the “transfection level versus trimethylammonium counterparts (DOTMA, DOTAP)” value is recorded as “higher levels of transfection”. For the same molecule, in the data set with CD-1 mouse lungs, the “Relative Activity of MMET Analogues-Cholesterol Liposomes” value was found to be 48.72 and the “rank order” value was “MMET≧DOTMA>MMES>DOTAP>LADOP”.

On to `CCCCCCCC/C=C\CCCCCCCCOCC(C[N+]1(C)CCCC1)OCCCCCCCC/C=C\CCCCCCCC` (centres unmarked) [MPET, -3-methyl-1,2-dioleyl-3-pyrrolinium propane], for which the “Relative Activity of MMET Analogues-Cholesterol Liposomes” value in the data set on CD-1 mouse lungs amounted to 55.49.

Turning to `CCCCCCCC/C=C\CCCCCCCC(=O)OCC(CNC(=O)[C@@H](N)CCCCN)OC(=O)CCCCCCC/C=C\CCCCCCCC` (stereo partly drawn) [LADOP, N-[(2,3-dioleoyloxy)propyl]-L-lysinamide], the “duration of transgene expression in lungs (disappearing by)” value in the data set on CD-1 mouse lungs (liposome/DNA complex delivered intravenously, after transfection) is at most 48 h. In addition, the “rank order” value with CD-1 mouse lungs is “MMET≧DOTMA>MMES>DOTAP>LADOP”. Moreover, the “gene expression after second intravenous transfection” value with CD-1 mouse lungs (second injection at 48 hours after the first injection) is “almost identical gene expression and duration”. Moreover, the “tolerance of repeated intravenous doses” value with CD-1 mice [2] is given as “tolerated repeated intravenous doses of DNA/LADOP complex well”.

On to `CCCCCCCC/C=C\CCCCCCCC[N+]1(CCCCCCCC/C=C\CCCCCCCC)CCOCC1.[Cl-]` [DOMor, N,N-dioleylmorpholinium chloride], for which, in the data set with CD-1 mouse lungs, the “Relative Activity of MMET Analogues-Cholesterol Liposomes” value was 76.09.

With `CCCCCCCC/C=C\CCCCCCCCOCC[N+]1(CCOCCCCCCCC/C=C\CCCCCCCC)CCOCC1.[Cl-]` [DODHEM, N,N-di-(2-oleyloxyethyl)-mopholinium chloride], the “Relative Activity of MMET Analogues-Cholesterol Liposomes” value in the data set with CD-1 mouse lungs was 74.54.

On to `CCCCCCCC/C=C\CCCCCCCCOCC(CN1CCOCC1)OCCCCCCCC/C=C\CCCCCCCC` (centres unmarked) [dioleyl morpholino propanediol, 1,2-dioleyl-N-3-morpholino propane], for which the “in vivo transfection activity of MMET analogues (in words)” value in the data set on CD-1 mouse lungs (formulated with cholesterol at 1:1 mole ratios, lungs) was “only weak activity”.

`CCCCCCCC/C=C\CCCCCCCC(=O)OCC(C[N+](C)(C)C)OC(=O)CCCCCCC/C=C\CCCCCCCC` (centres unmarked) [DOTAP, 1,2-dioleoyl-3-trimethylammonium propane, reference compound]: in the data set with CD-1 mouse lungs, the “Relative Activity of MMET Analogues-Cholesterol Liposomes” value amounted to 28.14 and the “rank order” value is reported as “MMET≧DOTMA>MMES>DOTAP>LADOP”.

On to “N-3-methyl-1,2-dioleyl-3-morpholinium propane chloride [MMET]”, for which the “transfection level versus trimethylammonium counterparts (DOTMA, DOTAP)” value in the data set with CD-1 mouse lungs (lungs) is “higher levels of transfection”. Besides, in the data set with CD-1 mouse lungs, the “Relative Activity of MMET Analogues-Cholesterol Liposomes” value came to 100 and the “rank order” value is listed as “MMET≧DOTMA>MMES>DOTAP>LADOP”. Also, the “transfection activity versus prior art liposomes composed of DOTMA and/or DOTAP or DOTMA-cholesterol” value in the data set on CD-1 mouse lungs (i.v. to mice, luciferase after 12 hours) is “much higher”. For the same molecule, in the data set on CD-1 mice [1], the “safety of lipoplex for CD-1 mice” value is “quite safe” and the “relative toxicity of liposome compositions” value is given as “somewhere in between”. In the data set with CD-1 mice [1] (DNA dosage 25 ug), the “Number of animals died per group (n = 3)” value is on record as “(0)”. In addition, in the data set with CD-1 mice [1] (DNA dosage 30 ug), the “Number of animals died per group (n = 3)” value was “(0)”. The “Number of animals died per group (n = 3)” value with CD-1 mice [1] (DNA dosage 45 ug) is recorded as “(1)”.
